One data set deals with Candida kefyr. Description: Measurement of antifungal activity in vitro (lowest active dose) vs. Candida kefyr. The following applies: lowest concentration inhibiting growth below 35% of control growth; CYG broth, 37° C. for 48 h, turbidimetry. It counts as cell-based. As to the method:
(§1) Test compounds were dissolved at a concentration of 10^−2 M in dimethyl sulfoxide (DMSO) and diluted into CYG broth (Odds, F. C. Antimicrobial Agents and Chemotherapy 1992; 36: 1727-1737) to give a final concentration of 25 μM and, in most tests, 5 μM. For some compounds the tests were done at 100, 10, 1.0 and 0.1 μM. Cultures were inoculated with Candida.kefyr to an initial concentration of 10^4/ml and with Trichophyton rubrum to an equivalent concentration determined by turbidimetry. Cultures were incubated in the wells of microdilution plates at 37° C. for 48 h (C. kefyr) and at 30° C. for 5-7 days (T. rubrum). Growth in wells containing test compounds was estimated turbidimetrically as a percentage of growth in compound-free controls and the lowest concentration of compound that inhibited the growth of an isolate below 35% of control growth was recorded as the lowest active dose (LAD).

In the next data set the test system is Trichophyton rubrum. Description: Measurement of antifungal activity in vitro (lowest active dose) vs. Trichophyton rubrum. In kind it is cell-based. The note with it: lowest concentration inhibiting growth below 35% of control growth; CYG broth, 30° C. for 5-7 days, turbidimetry. As to the method:
as §1

Molecules are shown by their SMILES.

`CC(C)NC(=O)Nc1ccc(N2CCN(c3ccc(OCC4OCC(Cn5cncn5)(c5ccc(F)cc5F)O4)cc3)CC2)cc1` (stereo not drawn) [Compound 53, (2S-cis)-N-[4-[4-[4-[[4-(2,4-difluorophenyl)-4-(1H-1,2,4-triazol-1-ylmetyl)-1,3-dioxolan-2-yl]-methoxy]phenyl]-1-piperazinyl]phenyl]-N′-(1-methylethyl)urea]: the melting point amounted to 196 °C.
The compound `CC(C)N1CCN(c2ccc(N3CCN(c4ccc(OC[C@H]5OC[C@](Cn6cncn6)(c6ccc(F)cc6F)O5)cc4)CC3)cc2)C1=O` [Compound 51, (2S-cis)-1-[4-[4-[4-[[4-(2,4-difluorophenyl)-4-(1H-1,2,4-triazol-1-ylmethyl)-1,3-dioxolan-2-yl]methoxy]phenyl]-1-piperazinyl]phenyl]-3-(1-methylethyl)-2-imidazolidinone] came in with a melting point of 177.8 °C. Also, the “LAD (μM) vs. C. keyr” value in the data set on Candida kefyr was “≦0.1 μM”. Also, in the data set on Trichophyton rubrum, the “LAD (μM) vs. T. rubrum” value was “≦0.1 μM”.

These data come from US6387906B1, “2,4,4-trisubstituted-1,3-dioxolane antifungals” (priority 1997, dated 2002).
